Test results taken from PMC9217999 (Targeted Oncology, 2022).
Marks after values point to notes of the source that are not given here.

Key:
[1] = Cobimetinib plasma pharmacokinetics in iMATRIX-cobi; assay type: in vivo, human; conditions: for Cmax: human, plasma, oral, 1 mg/kg, Steady state Cmax, geometric mean (%CV), 1.0 mg/kg suspension
[2] = system: relapsed/refractory solid tumors with known/expected MAPK pathway involvement; assay: Investigator-assessed anti-tumor activity in iMATRIX-cobi; assay type: in vivo, human
[3] = cited from earlier work
[4] = Days 1−21 of each 28-day cycle; cited from earlier work
[5] = system: unresectable/metastatic BRAF V600E/K-mutated melanoma; conditions: combined with vemurafenib versus vemurafenib plus placebo, p < 0.0001; cited from earlier work
[6] = system: pediatric cancer cell lines; conditions: ref Roche data on file; cited from earlier work
[7] = system: xenograft models of pediatric solid tumors; conditions: ref Roche data on file; cited from earlier work
P-glycoprotein = conditions: cited from earlier work
[8] = adults, similar dose; cited from earlier work
[9] = Dose escalation PN in NF1 (n = 12)

O=C(c1ccc(F)c(F)c1Nc1ccc(I)cc1F)N1CC(O)([C@@H]2CCCCN2)C1 [cobimetinib]
Cmax ([1]; dose escalation (n = 8)): 179 ng/mL
Cmax ([1]; expansion (n = 9)): 116 ng/mL
Exposure-safety relationships ([1]; pediatric patients): no exposure-safety relationships
Best overall response: CR ([2]; All LGG patients (n = 32)): 0 n (%)
Best overall response: Non-CR/Non-PD ([2]; All LGG patients (n = 32)): 1 (3) n (%)
Best overall response: Non-evaluable ([2]; All LGG patients (n = 32)): 1 (3) n (%)
Best overall response: Not available ([2]; All LGG patients (n = 32)): 2 (6) n (%)
Best overall response: ORR ([2]; All LGG patients (n = 32)): 3 (9) n (%)
Best overall response: PD ([2]; All LGG patients (n = 32)): 7 (22) n (%)
Best overall response: PR ([2]; All LGG patients (n = 32)): 3 (9) n (%)
Best overall response: SD ([2]; All LGG patients (n = 32)): 18 (56) n (%)
Best overall response: CR ([2]; Dose escalation LGG (n = 20)): 0 n (%)
Best overall response: Non-CR/Non-PD ([2]; Dose escalation LGG (n = 20)): 1 (5) n (%)
Best overall response: Non-evaluable ([2]; Dose escalation LGG (n = 20)): 0 n (%)
Best overall response: Not available ([2]; Dose escalation LGG (n = 20)): 2 (10) n (%)
Best overall response: ORR ([2]; Dose escalation LGG (n = 20)): 2 (10) n (%)
Best overall response: PD ([2]; Dose escalation LGG (n = 20)): 5 (25) n (%)
Best overall response: PR ([2]; Dose escalation LGG (n = 20)): 2 (10) n (%)
Best overall response: SD ([2]; Dose escalation LGG (n = 20)): 10 (50) n (%)
Best overall response: CR [2, 9]: 0 n (%)
Best overall response: Non-CR/Non-PD [2, 9]: 0 n (%)
Best overall response: Non-evaluable [2, 9]: 0 n (%)
Best overall response: Not available [2, 9]: 0 n (%)
Best overall response: ORR [2, 9]: 0 n (%)
Best overall response: PD [2, 9]: 0 n (%)
Best overall response: PR [2, 9]: 0 n (%)
Best overall response: SD [2, 9]: 12 (100) n (%)
Best overall response: CR ([2]; Expansion LGG (n = 12)): 0 n (%)
Best overall response: Minor response per RANO criteria ([2]; Expansion LGG (n = 12)): 1 (8)^a n (%)
Best overall response: Non-CR/Non-PD ([2]; Expansion LGG (n = 12)): 0 n (%)
Best overall response: Non-evaluable ([2]; Expansion LGG (n = 12)): 1 (8) n (%)
Best overall response: Not available ([2]; Expansion LGG (n = 12)): 0 n (%)
Best overall response: ORR ([2]; Expansion LGG (n = 12)): 1 (8) n (%)
Best overall response: PD ([2]; Expansion LGG (n = 12)): 2 (17) n (%)
Best overall response: PR ([2]; Expansion LGG (n = 12)): 1 (8) n (%)
Best overall response: SD ([2]; Expansion LGG (n = 12)): 8 (67) n (%)
Best overall response: CR ([2]; Overall population (n = 56)): 0 n (%)
Best overall response: Non-CR/Non-PD ([2]; Overall population (n = 56)): 1 (2) n (%)
Best overall response: Non-evaluable ([2]; Overall population (n = 56)): 2 (4) n (%)
Best overall response: Not available ([2]; Overall population (n = 56)): 4 (7) n (%)
Best overall response: ORR ([2]; Overall population (n = 56)): 3 (5) n (%)
Best overall response: PR ([2]; Overall population (n = 56)): 3 (5) n (%)
Best overall response: SD ([2]; Overall population (n = 56)): 33 (59) n (%)
Median DoR ([2]; in vivo): not reached
Median duration of stable disease ([2]; overall): 11.0 months
Non-evaluable ([2]; overall): 4%
Median OS ([2]; overall population): not reached
Overall response rate ([2]; overall, 3/56, all partial responses in LGG): 5.4%
Partial response (PR) ([2]; overall, 3/56 patients, all with LGG): 5%
Stable disease ([2]; overall, 33/56): 59%
Mean accumulation ratio in adults [3]: 2.4 fold
Recommended Phase II dose (RP2D) in adults [4]: 60 mg/day
Investigator-assessed progression-free survival (PFS) [5]: significantly improved
Objective response rate (ORR) [5]: significantly improved
Cytotoxic effects [6]: Cytotoxic effects
Activity in xenograft models [7]: activity observed
P-glycoprotein substrate (P-glycoprotein): substrate of P-glycoprotein
Cobimetinib AUC lower in healthy subjects versus cancer patients [8]: 50%
